Consider five molecules from patent US9243037B2, “Gramicidin a mutants that function as antibiotics with improved solubility and reduced toxicity” (Trustees of Boston College, priority 2011, dated 2016).

Series [1] relates to Bacillus subtilis (ATCC 663). The following applies: for MICs B. Subtilius / Minimum Inhibition Concentration B. Subtilius: ATCC 663; for MIC relative to wild-type Gramicidin A: B. subtilis.
For series [2], the system named is Staphylococcus aureus (ATCC 6538). The following applies: for MIC relative to wild-type Gramicidin A: S. Aureus.
In series [3] the test system is human red blood cells (hRBCs). In words: K+ leakage from hRBCs (flame atomic emission). The class given is cell-based. On the procedure: The rest of supernatant (1.2 mL) from each sample prepared as described in the hemoglobin leakage assay was transferred into a new sterile eppendorf tube and subject to the K+ concentration measurement using a flame-atomic emission spectrometer (λem=766.5 nm, Perkin Elmer Atomic absorption Spectrometer 3100, acetylene/air flame). Three readings were taken for each sample and averaged as final results. The fraction of K+ leakage from hRBCs was calculated as percentage K+ leaked=100·(I776.5,peptide−I776.5,DMSO)/(I776.5,complete lysis−I776.5,DMSO).

A short description of series [4]: Peptide binding onto membranes (Trp fluorescence). The following applies: negatively charged POPC/POPG vesicles; in words.
Series [5] concerns Streptococcus pyogenes (ATCC 19615). The following applies: for MICs S. Pyogenes / Minimum Inhibition Concentration S. Pyogenesis: ATCC 19615; for MIC relative to wild-type Gramicidin A: S. Pyogenes.
The subject of series [6] is human red blood cells (hRBCs). The experiment in a line: Haemoglobin release from human red blood cells. The following applies: for HC50 (50% haemoglobin leakage relative to 1% TritonX-100) / Toxicity HC50: red cells of human. It is filed as cell-based. On the procedure: Fresh human red blood cells (hRBCs) were centrifuged at 3500 rpm and washed with PBS buffer until the supernatant was clear. The hRBCs were then resuspended and diluted to a final concentration of 1% (v/v) in PBS and used immediately. 15 μL of serial dilution (2-fold) of peptides in DMSO or DMSO alone as a negative control were added to 1.5 mL of hRBCs in PBS. The resulting mixture was gently shaken to mix well and incubated at 37° C. for 1 hr, followed by centrifugation at 3500 rpm for 10 min using tabletop centrifuge. Aliquots (50 μL) of the supernatant (in triplicates) were transferred into a sterile 96-well plate containing 50 μL of H2O in each well. Release of hemoglobin was monitored at 415 nm using a microtiter plate reader. Percentage hemolysis was calculated using percentage hemolysis=100·(A415, peptide-A415,DMSO)/(A415, complete hemolysis-A415, DMSO), where complete hemolysis is achieved by mixing hRBCs with 1% TritonX-100.

The conditions of series [7]: Trp absorbance @ 280 nm; 10 mM PBS, pH 7.0, 1% DMSO; values taken from ref; cited from earlier work.
Series [8] is described as follows: Peptide binding onto membranes (Trp fluorescence). The following applies: neutral POPC vesicles; in words.
The nature of the next series: physchem. It is filed as physicochemical. Conditions: for solubility kinetic at 30 min: pH 7, aqueous with cosolvent or surfactant or cyclodextrin. The protocol: Peptide solubility in 10 mM HEPES buffer with 1% DMSO was measured by monitoring tryptophan absorbance. A concentrated (6.0-8.0 mM) peptide stock solution in DMSO was diluted 100 times (5 μL of the stock into 500 jtl of 10 mM HEPES buffer, pH 7.0). The mixture was sonicated for 30 mins and then subject to centrifugation (14,000 rpm, 10 mins) to remove possible precipitate. The supernatant (400 μL) was transferred to a quartz cuvette and the peptide concentration was determined by tryptophan absorbance at 280 nm (ε=22760 M−1 cm-1). The UV/Vis spectra of the supernatant can be seen in FIG. 1 and FIG. 5.

Where a SMILES comes first, the peptide text is derived from it. [ ]: non-standard residue; d: D form. The star is where a group is joined. dLys(Me3) = C[N+](C)(C)CCCC[C@@H](N)C(=O)O; NHCH2CH2OH = OCCN*; For = O=C* Where only a bound is given, the exact number is not on record here.

As to `CC(C)C[C@@H](NC(=O)[C@H](C)NC(=O)CNC(=O)[C@@H](NC=O)C(C)C)C(=O)N[C@@H](C)C(=O)N[C@@H](C(=O)N[C@H](C(=O)N[C@@H](C(=O)N[C@@H](Cc1c[nH]c2ccccc12)C(=O)N[C@H](CCCCN)C(=O)N[C@@H](Cc1c[nH]c2ccccc12)C(=O)N[C@H](CC(C)C)C(=O)N[C@@H](Cc1c[nH]c2ccccc12)C(=O)N[C@H](CC(C)C)C(=O)N[C@@H](Cc1c[nH]c2ccccc12)C(=O)NCCO)C(C)C)C(C)C)C(C)C` (racemic) [gA-1, formyl-V-G-A-dL-A-dV-V-dV-W-dK-W-dL-W-dL-W-NHCH2CH2OH], in series [1], the “MICs B. Subtilius” value amounted to 5 µM and the “MIC relative to wild-type Gramicidin A” value is “equivalent to that of wild-type Gramicidin A”. Moreover, the “MICs S. Aureus” value in [2] (ATCC 6538) stood at 2.5 µM. Moreover, in series [2], the “MIC relative to wild-type Gramicidin A” value is reported as “equivalent to that of wild-type Gramicidin A”. Further, in series [3], the “KC50 (50% K+ ion leakage relative to 1% TritonX-100)” value came to 0.01 µM and the “peptide concentration for 50% K+ ion leakage, fold greater than wild-type Gramicidin A” value is reported as ~100 fold. The “apparent dissociation constant (Kd) / binding” value in [4] was “apparent Kd values close to that of gA-WT”. In series [5], the “MICs S. Pyogenes” value was determined as 0.16 µM and the “MIC relative to wild-type Gramicidin A” value is given as “equivalent to that of wild-type Gramicidin A”. The “HC50 (50% haemoglobin leakage relative to 1% TritonX-100)” value in series [6] is 5~10 μM. The “Sat. Conc, Lys series” value in series [7] was 10 µM. In series [8], the “apparent dissociation constant (Kd) / binding” value was “apparent Kd values close to that of gA-WT”. The “water solubility, fold higher than wild-type Gramicidin A” value in the series “physchem” is reported as ~200 fold.
`CC(C)C[C@@H](NC(=O)[C@H](C)NC(=O)CNC(=O)[C@@H](NC=O)C(C)C)C(=O)N[C@@H](C)C(=O)N[C@@H](C(=O)N[C@H](C(=O)N[C@@H](C(=O)N[C@@H](Cc1c[nH]c2ccccc12)C(=O)N[C@H](CC(C)C)C(=O)N[C@@H](Cc1c[nH]c2ccccc12)C(=O)N[C@H](CC(C)C)C(=O)N[C@@H](Cc1c[nH]c2ccccc12)C(=O)N[C@H](CCCCN)C(=O)N[C@@H](Cc1c[nH]c2ccccc12)C(=O)NCCO)C(C)C)C(C)C)C(C)C` (racemic) [gA-2, formyl-V-G-A-dL-A-dV-V-dV-W-dL-W-dL-W-dK-W-NHCH2CH2OH]: the “MICs B. Subtilius” value in series [1] is 5 µM. Moreover, the “MIC relative to wild-type Gramicidin A” value in series [1], in series [2] and in series [5] was “equivalent to that of wild-type Gramicidin A” in each case. For the same molecule, in series [2] (ATCC 6538), the “MICs S. Aureus” value is 2.5 µM. In addition, the “KC50 (50% K+ ion leakage relative to 1% TritonX-100)” value in series [3] amounted to 0.01 µM. Moreover, the “peptide concentration for 50% K+ ion leakage, fold greater than wild-type Gramicidin A” value in series [3] is given as ~100 fold. Moreover, the “apparent dissociation constant (Kd) / binding” value in series [4] and in series [8] was “apparent Kd values close to that of gA-WT” each time. In series [5], the “MICs S. Pyogenes” value is 0.16 µM. In addition, the “HC50 (50% haemoglobin leakage relative to 1% TritonX-100)” value in series [6] was 5~10 μM. In addition, the “Sat. Conc, Lys series” value in series [7] was 11 µM. Besides, the “water solubility, fold higher than wild-type Gramicidin A” value in “physchem” is given as ~200 fold.
For the molecule `CC(C)C[C@@H](NC(=O)[C@H](C)NC(=O)CNC(=O)[C@@H](NC=O)C(C)C)C(=O)N[C@@H](C)C(=O)N[C@@H](C(=O)N[C@H](C(=O)N[C@@H](C(=O)N[C@@H](Cc1c[nH]c2ccccc12)C(=O)N[C@H](CCCC[N+](C)(C)C)C(=O)N[C@@H](Cc1c[nH]c2ccccc12)C(=O)N[C@H](CC(C)C)C(=O)N[C@@H](Cc1c[nH]c2ccccc12)C(=O)N[C@H](CCCC[N+](C)(C)C)C(=O)N[C@@H](Cc1c[nH]c2ccccc12)C(=O)NCCO)C(C)C)C(C)C)C(C)C` [10, 14M] (For-VGA[dL]A[dV]V[dV]W[dLys(Me3)]W[dL]W[dLys(Me3)]W-NHCH2CH2OH), the “Minimum Inhibition Concentration B. Subtilius” value in series [1] amounted to 2.5 µM. Moreover, in series [2] (ATCC 6538), the “HC50 printed in the S. Aureus MIC cell” value is 1.25 µM and the “Minimum Inhibition Concentration S. Aureus” value was > 10 µM. Further, in [3], the KC50 is 20 and the “Toxicity KC50” value came out at 20 µM. Also, the “Minimum Inhibition Concentration S. Pyogenesis” value in [5] is 1.25 µM. For the same molecule, in [6], the HC50 was >24; the “haemoglobin leakage from hRBCs” value was “[c] HC50 is the peptide concentration required to cause 50% of haemoglobin leakage from human red blood cells compared to the lysis of same amount cells by 1% TritonX-100. No haemoglogin leakage was observed in the cases of 10, 14M, 10, 12M or 10, 12, 14M at the concentration range tested”; the “Toxicity HC50” value is >24 µM. Also, the solubility (kinetic) at 30 min in the series “physchem” was 30 µM.
For the molecule `CC(C)C[C@@H](NC(=O)[C@H](C)NC(=O)CNC(=O)[C@@H](NC=O)C(C)C)C(=O)N[C@@H](C)C(=O)N[C@@H](C(=O)N[C@H](C(=O)N[C@@H](C(=O)N[C@@H](Cc1c[nH]c2ccccc12)C(=O)N[C@H](CCCC[N+](C)(C)C)C(=O)N[C@@H](Cc1c[nH]c2ccccc12)C(=O)N[C@H](CC(C)C)C(=O)N[C@@H](Cc1c[nH]c2ccccc12)C(=O)N[C@H](CC(C)C)C(=O)N[C@@H](Cc1c[nH]c2ccccc12)C(=O)NCCO)C(C)C)C(C)C)C(C)C` [10M] (For-VGA[dL]A[dV]V[dV]W[dLys(Me3)]W[dL]W[dL]W-NHCH2CH2OH), in series [1], the “Minimum Inhibition Concentration B. Subtilius” value was determined as 2.5 µM. Further, the “Minimum Inhibition Concentration S. Aureus” value in series [2] (ATCC 6538) was found to be 2.5 µM. Further, in [3], the KC50 worked out at 0.04 and the “Toxicity KC50” value is 0.04 µM. Besides, the “Minimum Inhibition Concentration S. Pyogenesis” value in series [5] was determined as 0.15 µM. In [6], the HC50 stood at 19 and the “Toxicity HC50” value worked out at 19 µM. The molecule further yielded a solubility (kinetic) at 30 min in “physchem” of 4.3 µM.
For `CC(C)C[C@@H](NC(=O)[C@H](C)NC(=O)CNC(=O)[C@@H](NC=O)C(C)C)C(=O)N[C@@H](C)C(=O)N[C@@H](C(=O)N[C@H](C(=O)N[C@@H](C(=O)N[C@@H](Cc1c[nH]c2ccccc12)C(=O)N[C@H](CC(C)C)C(=O)N[C@@H](Cc1c[nH]c2ccccc12)C(=O)N[C@H](CC(C)C)C(=O)N[C@@H](Cc1c[nH]c2ccccc12)C(=O)N[C@H](CCCC[N+](C)(C)C)C(=O)N[C@@H](Cc1c[nH]c2ccccc12)C(=O)NCCO)C(C)C)C(C)C)C(C)C` [14M] (For-VGA[dL]A[dV]V[dV]W[dL]W[dL]W[dLys(Me3)]W-NHCH2CH2OH), in series [1], the “Minimum Inhibition Concentration B. Subtilius” value was 2.5 µM. Also, the “Minimum Inhibition Concentration S. Aureus” value in series [2] (ATCC 6538) was in the range of 1.25 to 2.5 µM. In series [3], the KC50 came out at 0.015 and the “Toxicity KC50” value was 0.015 µM. In addition, the “Minimum Inhibition Concentration S. Pyogenesis” value in series [5] amounted to 0.078 µM. Also, in series [6], the HC50 is given as 24 and the “Toxicity HC50” value was 24 µM. Further, in the series “physchem”, the kinetic solubility at 30 min amounted to 3.6 µM.
